Several values for one entry are separate records, joined by “and”; a condition that tells them apart may be missing. Equal values may be shown once.
How the values were obtained:
NMDAR2A = target: T1, NMDAR2A (Homo sapiens, UniProt Q12879); assay: NMDAR agonist assay, [3H]MK-801 binding, NMDAR2A expressing HEK cell membranes; format: biochemical; parameters: key to NMDAR2A B: log EC50: 0=−; ≥1×10^−9 M (e.g., −8)=+; <1×10^−9 M (e.g., −10)=++; settings: 50 μM glutamate; for EC50: read-out: NMDAR2A B: log EC50 (converted); for Emax: 0.25 h, read-out: NMDAR2A A: % maximal [3H]MK-801 binding relative to 1 mM glycine; for NMDAR2A A: % maximal [3H]MK-801 binding relative to 1 mM glycine / Emax: relative to 1 mM glycine
T1 construct: expressed in transfected cells; host or cells: HEK cells (membrane extract)
Description: (§1) Assays were conducted as described by Moskal et al., “GLYX-13: a monoclonal antibody-derived peptide that acts as an N-methyl-D-aspartate receptor modulator,” Neuropharmacology, 49, 1077-87, 2005. These studies were designed to determine if the test compounds act to facilitate NMDAR activation in NMDAR2A, NMDAR2B, NMDAR2C or NMDAR2D expressing HEK cell membranes as measured by increases in [^3H]MK-801 binding.
(§2) In the assay, 300 μg of NMDAR expressing HEK cell membrane extract protein was preincubated for 15 minutes at […] in the presence of saturating concentrations of glutamate (50 μM) and varying concentrations of test compound (1×10^−15M-1×10^−7M), or 1 mM glycine. Following the addition of 0.3 μCi of [3H]MK-801 (22.5 Ci/mmol), reactions were again incubated for 15 minutes at 25° C. (nonequilibrium conditions). Bound and free [3H]MK-801 were separated via rapid filtration using a Brandel apparatus.
(§3) In analyzing the data, the DPM (disintegrations per minute) of [3H]MK-801 remaining on the filter were measured for each concentration of test compound or for 1 mM glycine. The DPM values for each concentration of a ligand (N=2) were averaged. The baseline value was determined from the best fit curve of the DPM values modeled using the GraphPad program and the log(agonist) vs. response (three parameters) algorithm was then subtracted from all points in the dataset. The % maximal [^3H]MK-801 binding was then calculated relative to that of 1 mM glycine: all baseline subtracted DPM values were divided by the average value for 1 mM glycine. The EC50 and % maximal activity were then obtained from the best fit curve of the % maximal [3H]MK-801 binding data modelled using the GraphPad program and the log(agonist) vs. response (three parameters) algorithm.
(§4) The tables below summarize the results for the wild type […] NMDAR2A, NMDAR2B, NMDAR2C, and NMDAR2D, and whether the compound is not an agonist (−), is an agonist (+), or is a strong agonist (++), where column A is based on the % maximal [3H]MK-801 binding relative to 1 mM glycine (−=0; <100%=+; and >100%=++); and column B is based on log EC50 values (0=−; ≥1×10^−9 M (e.g., −8)=+; and <1×10^−9 M (e.g., −10)=++).

NMDAR2B = target: T2, NMDAR2B (Homo sapiens, UniProt Q13224); assay: NMDAR agonist assay, [3H]MK-801 binding, NMDAR2B expressing HEK cell membranes; format: biochemical; settings: 50 μM glutamate; for EC50: read-out: NMDAR2B B: log EC50 (converted); for NMDAR2B A: % maximal [3H]MK-801 binding relative to 1 mM glycine / Emax: relative to 1 mM glycine; for Emax: read-out: NMDAR2B A: % maximal [3H]MK-801 binding relative to 1 mM glycine
T2 construct: expressed in transfected cells; host or cells: HEK cells (membrane extract)
Description: as §1, §2, §3, §4

[1] = IV pharmacokinetics in Sprague Dawley rats; format: in vivo; settings: Sprague-Dawley, rat, in vivo, iv, 2 mg/kg, normal saline; for Cmax: read-out: Cmax; for Vd: read-out: Vss
Description: Sprague Dawley rats were dosed intravenously using a normal saline formulation containing 2 mg/kg of the compounds identified in the below table. The table below summarizes the results of the IV pharmacokinetics.

[2] = Oral pharmacokinetics in Sprague Dawley rats (plasma, brain, CSF); format: in vivo; settings: rat, 10 mg/kg; for Tmax / AUC(0-t) / bioavailability / Cmax: Sprague-Dawley, po, plasma; for Tmax / AUC(0-t) / Cmax / CSF Cmax / Brain Cmax: per os; for Tmax: read-out: Tmax; for bioavailability: per os 10 mg/kg; for Cmax: read-out: Cmax
Description: In another experiment, Sprague Dawley rats were dosed per os (oral gavage) using a normal saline formulation containing 10 mg/kg of the compounds identified in the table below. Plasma, brain, and CSF samples were analyzed at various time points over a 24 hour period. The table below summarizes the results of the oral pharmacokinetics, where the first three values (Tmax, Cmax and AUClast) are plasma values.

[3] = Microsomal stability (Human); format: in vitro ADME; settings: after 60 minutes
Description: (§5) Microsomal stability of disclosed compounds was investigated. The following table indicates the percent of compound remaining after 60 minutes.

[4] = Microsomal stability (Rat); format: in vitro ADME; settings: after 60 minutes
Description: as §5

Plasma stability (Human) = format: in vitro ADME; settings: after 60 minutes
Description: (§6) Plasma stability of disclosed compounds was investigated. The following table indicates the percent of compound remaining after 60 minutes.

Plasma stability (Rat) = format: in vitro ADME; settings: after 60 minutes
Description: as §6

Sprague Dawley rats = assay: Porsolt forced swim test; format: in vivo; settings: 1 h post-dose, 0.1 mg/kg
Description: A non-clinical in vivo pharmacology study (Porsolt assay) was performed to measure antidepressant-like effects. The study allowed for the evaluation of the effects of each compound on the Porsolt forced swim test as assessed by the rats' response (reduced floating time) during a 5-minute swimming test.
Male 2-3 month old Sprague Dawley rats were used (Harlan, Indianapolis, Ind.). Rats were housed in Lucite cages with aspen wood chip bedding, maintained on a 12:12 light:dark cycle (lights on at 5 AM), and given ad libitum access to Purina lab chow (USA) and tap water throughout the study.
The Porsolt forced swim test adapted for use in rats was performed as described by Burgdorf et al., (The long-lasting antidepressant effects of rapastinel (GLYX-13) are associated with a metaplasticity process in the medial prefrontal cortex and hippocampus. Neuroscience 308:202-211, 2015). Animals were placed in a 46 cm tall×20 cm in diameter clear glass tube filled to 30 cm with tap water (23±1° C.) for 15 min on the first day (habituation) and 5 min on the subsequent test day. Animals were tested 1 h or 24 h post-dosing with the test compounds or vehicle control (0.5% sodium carboxymethyl cellulose in 0.9% sterile saline). A subset of compounds tested at 1 h post-dosing was tested again 1 wk post-dosing. Animals received a 15 min habituation session 1 day before the first 5 min test. Water was changed after every other animal. Animals were videotaped, and floating time as defined as the minimal amount of effort required to keep the animals head above water was scored offline by a blinded experimenter with high inter-rater reliability (Pearson's r >0.9).

T1 sequence (Q12879 23-1464, species assumed, other chains not shown): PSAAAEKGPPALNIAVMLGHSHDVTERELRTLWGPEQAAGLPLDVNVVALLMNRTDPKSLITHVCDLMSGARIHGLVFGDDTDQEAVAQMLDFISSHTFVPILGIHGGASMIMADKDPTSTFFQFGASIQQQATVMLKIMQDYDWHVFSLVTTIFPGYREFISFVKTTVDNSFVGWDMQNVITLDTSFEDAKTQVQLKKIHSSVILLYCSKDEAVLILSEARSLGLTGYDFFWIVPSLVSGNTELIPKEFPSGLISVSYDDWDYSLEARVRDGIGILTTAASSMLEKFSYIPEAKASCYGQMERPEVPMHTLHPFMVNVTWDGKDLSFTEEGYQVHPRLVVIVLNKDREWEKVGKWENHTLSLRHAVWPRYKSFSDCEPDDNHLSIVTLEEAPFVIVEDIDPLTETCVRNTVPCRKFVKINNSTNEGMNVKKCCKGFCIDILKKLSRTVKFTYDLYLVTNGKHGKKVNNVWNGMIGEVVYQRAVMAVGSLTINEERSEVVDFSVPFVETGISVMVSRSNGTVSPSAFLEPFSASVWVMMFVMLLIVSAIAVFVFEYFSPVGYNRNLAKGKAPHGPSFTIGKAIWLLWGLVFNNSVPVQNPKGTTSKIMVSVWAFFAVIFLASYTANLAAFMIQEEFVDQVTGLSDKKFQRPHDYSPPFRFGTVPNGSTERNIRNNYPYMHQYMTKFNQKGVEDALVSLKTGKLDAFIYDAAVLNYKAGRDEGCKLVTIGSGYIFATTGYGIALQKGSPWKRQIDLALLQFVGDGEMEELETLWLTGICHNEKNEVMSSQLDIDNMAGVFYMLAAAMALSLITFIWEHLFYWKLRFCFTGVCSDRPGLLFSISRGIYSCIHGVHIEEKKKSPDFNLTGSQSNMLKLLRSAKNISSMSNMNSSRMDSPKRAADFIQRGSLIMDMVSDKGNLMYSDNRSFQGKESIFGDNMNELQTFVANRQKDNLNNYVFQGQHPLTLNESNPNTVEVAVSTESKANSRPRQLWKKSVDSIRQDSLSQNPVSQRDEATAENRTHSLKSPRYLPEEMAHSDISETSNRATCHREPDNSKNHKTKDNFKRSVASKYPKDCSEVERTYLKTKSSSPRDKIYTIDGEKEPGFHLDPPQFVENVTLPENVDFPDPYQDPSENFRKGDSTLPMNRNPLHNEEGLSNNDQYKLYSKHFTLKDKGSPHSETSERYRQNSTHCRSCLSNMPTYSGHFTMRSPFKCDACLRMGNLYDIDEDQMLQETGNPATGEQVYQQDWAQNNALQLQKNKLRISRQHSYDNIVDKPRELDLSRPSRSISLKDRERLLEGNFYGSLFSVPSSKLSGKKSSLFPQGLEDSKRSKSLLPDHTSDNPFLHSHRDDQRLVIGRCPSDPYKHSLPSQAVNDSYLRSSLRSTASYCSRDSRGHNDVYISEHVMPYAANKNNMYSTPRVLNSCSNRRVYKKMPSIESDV
T2 sequence (Q13224 27-1484, species assumed, other chains not shown): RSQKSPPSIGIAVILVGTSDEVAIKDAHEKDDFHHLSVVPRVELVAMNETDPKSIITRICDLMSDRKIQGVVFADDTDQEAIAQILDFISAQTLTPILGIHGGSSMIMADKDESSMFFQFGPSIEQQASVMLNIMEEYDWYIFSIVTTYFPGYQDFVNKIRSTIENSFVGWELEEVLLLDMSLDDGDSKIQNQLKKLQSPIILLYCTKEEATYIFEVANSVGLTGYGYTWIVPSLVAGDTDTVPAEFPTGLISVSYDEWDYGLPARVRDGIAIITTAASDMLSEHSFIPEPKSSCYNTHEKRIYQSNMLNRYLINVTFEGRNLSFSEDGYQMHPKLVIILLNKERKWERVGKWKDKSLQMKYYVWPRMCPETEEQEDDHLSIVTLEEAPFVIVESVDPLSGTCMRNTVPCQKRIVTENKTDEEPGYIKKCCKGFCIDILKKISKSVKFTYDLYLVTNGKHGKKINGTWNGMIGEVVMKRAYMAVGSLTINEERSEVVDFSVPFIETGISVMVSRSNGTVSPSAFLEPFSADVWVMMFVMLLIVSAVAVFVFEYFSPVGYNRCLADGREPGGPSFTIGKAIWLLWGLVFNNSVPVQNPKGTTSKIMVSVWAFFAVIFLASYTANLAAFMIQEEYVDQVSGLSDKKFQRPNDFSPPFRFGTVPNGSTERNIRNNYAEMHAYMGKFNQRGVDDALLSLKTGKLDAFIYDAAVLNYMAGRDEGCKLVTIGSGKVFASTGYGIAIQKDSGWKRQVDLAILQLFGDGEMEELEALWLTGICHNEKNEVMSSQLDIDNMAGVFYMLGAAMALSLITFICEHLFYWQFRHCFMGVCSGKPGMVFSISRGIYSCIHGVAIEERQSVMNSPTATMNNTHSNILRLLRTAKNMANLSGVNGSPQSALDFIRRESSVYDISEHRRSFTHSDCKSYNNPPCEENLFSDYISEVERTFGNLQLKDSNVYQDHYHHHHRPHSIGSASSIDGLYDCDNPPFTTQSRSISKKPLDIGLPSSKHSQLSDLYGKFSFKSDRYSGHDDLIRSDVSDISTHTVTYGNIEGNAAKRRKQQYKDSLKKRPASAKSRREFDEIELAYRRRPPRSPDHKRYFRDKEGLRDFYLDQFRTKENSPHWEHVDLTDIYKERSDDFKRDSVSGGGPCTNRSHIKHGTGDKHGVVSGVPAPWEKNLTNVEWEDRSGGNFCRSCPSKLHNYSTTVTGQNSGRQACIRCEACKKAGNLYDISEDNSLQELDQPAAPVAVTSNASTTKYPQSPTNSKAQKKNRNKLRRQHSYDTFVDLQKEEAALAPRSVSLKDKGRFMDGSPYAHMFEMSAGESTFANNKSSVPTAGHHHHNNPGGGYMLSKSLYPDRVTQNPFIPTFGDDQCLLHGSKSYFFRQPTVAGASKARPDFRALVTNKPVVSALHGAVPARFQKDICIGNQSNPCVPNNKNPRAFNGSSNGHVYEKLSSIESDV

Row | EC50 (NMDAR2A) | NMDAR2A A: % maximal [3H]MK-801 binding relative to 1 mM glycine (NMDAR2A) | EC50 (NMDAR2B) | NMDAR2B A: % maximal [3H]MK-801 binding relative to 1 mM glycine (NMDAR2B) | AUC(0-t) [1] | clearance [1] | half-life [1] | Cmax [1] | Vd [1] | Tmax [2] | AUC(0-t) [2] | bioavailability [2] | Cmax [2] | CSF Cmax [2] | Microsomal (Human): percent of compound remaining [3] | Microsomal (Rat): percent of compound remaining [4] | Emax (NMDAR2A) | Emax (NMDAR2B) | Plasma (Human): percent of compound remaining (Plasma stability (Human)) | Plasma (Rat): percent of compound remaining (Plasma stability (Rat)) | Structure (SMILES) | also measured
1 | < 1 nM | + (<100%=+) | < 1 nM | ++ (>100%=++) | 1990 ng·h/mL | 16.7 mL/min/kg | 25.8 min | 1500 ng/mL | 0.75 L/kg | 25.2 min | 11300 ng·h/mL | 100% | 5300 ng/mL | 2296.73 ng/mL | 87% | 104% |  |  |  |  | CC(C)C(=O)N1CCCC12CC=CCNC2=O (single isomer, unassigned) [GH-2, 1-isobutyryl-1,7-diazaspiro[4.6]undec-9-en-6-one] | Brain Cmax [2]: 1424.03 ng/mL
2 | < 1 nM |  | < 1 nM |  |  |  |  |  |  |  |  |  |  |  | 80% | 2% | < 100% | > 100% | 98% | 96% | O=C1NCC=CCC12CCCN2Cc1ccccc1 (single isomer, unassigned) [GP-1, 1-benzyl-1,7-diazaspiro[4.6]undec-9-en-6-one] | 
3 | < 1 nM | ++ (>100%=++) | < 1 nM | + (<100%=+) |  |  |  |  |  |  |  |  |  |  | 89% | 7% |  |  | 96% | 85% | O=C1NCC=CCC12CCCN2Cc1ccccc1 (single isomer, unassigned) [GP-2, 1-benzyl-1,7-diazaspiro[4.6]undec-9-en-6-one] | 
4 | < 1 nM |  | < 1 nM |  |  |  |  |  |  |  |  |  |  |  | 96% | 69% | < 100% | < 100% | 96% | 102% | CC(C)CN1CCCC12CC=CCNC2=O (single isomer, unassigned) [GI-1, 1-isobutyl-1,7-diazaspiro[4.6]undec-9-en-6-one] | 
5 | < 1 nM |  | < 1 nM |  |  |  |  |  |  |  |  |  |  |  | 104% | 100% | < 100% | < 100% | 103% and 96% | 102% | CC(C)C(=O)N1CCCC12CC=CCNC2=O (single isomer, unassigned) [GH-1, 1-isobutyryl-1,7-diazaspiro[4.6]undec-9-en-6-one] | 
6 | < 1 nM |  | < 1 nM |  | 1020 ng·h/mL | 32.2 mL/min/kg | 40.8 min | 1210 ng/mL | 1.78 L/kg | 25.2 min | 4430 ng·h/mL | 87% | 2400 ng/mL | 744.03 ng/mL | 115% and 67% |  | < 100% | > 100% | 97% | 89% | CN1CCCC12CC=CCNC2=O (single isomer, unassigned) [GC-1, 1-methyl-1,7-diazaspiro[4.6]undec-9-en-6-one] | Brain Cmax [2]: 2578.7 ng/mL
7 |  | − (−=0) | < 1 nM | + (<100%=+) |  |  |  |  |  |  |  |  |  |  | 94% | 46% |  |  | 92% | 97% | O=C1N(Cc2ccc(F)cc2)CC=CCC12CCCN2 (single isomer, unassigned) [GK-2, 7-(4-fluorobenzyl)-1,7-diazaspiro[4.6]undec-9-en-6-one] | NMDAR2A B: log EC50 (NMDAR2A): −
8 | < 1 nM | + (<100%=+) | < 1 nM | + (<100%=+) |  |  |  |  |  |  |  |  |  |  | 95% | 3% |  |  | 95% | 99% | O=C1NCC=CCC12CCCN2Cc1ccc(F)cc1 (single isomer, unassigned) [GJ-2, 1-(4-fluorobenzyl)-1,7-diazaspiro[4.6]undec-9-en-6-one] | 
9 | ≥ 1 nM | + (<100%=+) | < 1 nM | + (<100%=+) |  |  |  |  |  |  |  |  |  |  | 82% and 100% |  |  |  | 98% | 103% | CN1CCCC12CC=CCNC2=O (single isomer, unassigned) [GC-2, 1-methyl-1,7-diazaspiro[4.6]undec-9-en-6-one] | 
10 | < 1 nM | + (<100%=+) | < 1 nM |  | 335 ng·h/mL | 98.4 mL/min/kg | 32.4 min | 854 ng/mL | 3.01 L/kg | 30 min | 718 ng·h/mL | 43% | 642 ng/mL | 322.45 ng/mL |  |  |  | > 100% |  |  | O=C1N(Cc2ccc(F)cc2)CC=CCC12CCCN2 (single isomer, unassigned) [GK-1, 7-(4-fluorobenzyl)-1,7-diazaspiro[4.6]undec-9-en-6-one] | Brain Cmax [2]: 3368.95 ng/mL; % reduction in float time (Sprague Dawley rats): 24%; Significance vs. vehicle (Sprague Dawley rats): No

— patent publication US20210047324A1 (Aptinyx Inc., priority 2018, published 2021)
